Measured values reported in PMC8841438 (Clinical and Translational Science, 2021).
“Also recorded” adds a separate entry of the source. Like-named read-outs stand apart in the source and are kept apart here.

Key:
Safety assessments = type: in vivo, human; settings: for subjects with AEs: all grade 1
[1] = available data; cited from earlier work
[2] = Study 3: metformin pharmacokinetics alone or with filgotinib in healthy subjects; settings: human, plasma, oral, 850 mg
CES1 = settings: human hepatocytes; cited from earlier work
CES2 = settings: human hepatocytes; cited from earlier work
[3] = type: in vivo, human; settings: study 1
[4] = type: in vivo, human; settings: study 2
[5] = target: T1, organic cation transporter 2 (OCT2) (Homo sapiens, UniProt O15244); test: In vitro transporter inhibition: OCT2; type: in vitro ADME; settings: data on file at Gilead Sciences, Inc.
T1 sequence (O15244 1-555): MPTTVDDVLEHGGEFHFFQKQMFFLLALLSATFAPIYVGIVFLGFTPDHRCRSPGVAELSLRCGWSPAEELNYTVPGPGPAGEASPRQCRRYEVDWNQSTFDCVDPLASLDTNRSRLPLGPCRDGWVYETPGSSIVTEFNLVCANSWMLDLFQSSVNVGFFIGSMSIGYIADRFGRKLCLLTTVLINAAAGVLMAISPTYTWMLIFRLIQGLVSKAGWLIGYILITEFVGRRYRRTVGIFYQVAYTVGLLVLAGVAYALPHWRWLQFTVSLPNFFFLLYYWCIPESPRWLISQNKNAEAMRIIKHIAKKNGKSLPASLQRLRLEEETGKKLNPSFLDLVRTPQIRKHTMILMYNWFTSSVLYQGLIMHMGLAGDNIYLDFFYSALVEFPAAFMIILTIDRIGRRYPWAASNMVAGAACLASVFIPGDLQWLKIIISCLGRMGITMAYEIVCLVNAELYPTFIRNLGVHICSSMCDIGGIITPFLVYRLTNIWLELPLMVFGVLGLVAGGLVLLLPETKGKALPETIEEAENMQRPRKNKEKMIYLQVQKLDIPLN

MATE2K = MATE2K (Homo sapiens, UniProt Q86VL8); test: In vitro transporter inhibition: MATE2K; type: in vitro ADME; settings: data on file at Gilead Sciences, Inc.
MATE2K, sequence (Q86VL8 1-566 isoform Q86VL8-3): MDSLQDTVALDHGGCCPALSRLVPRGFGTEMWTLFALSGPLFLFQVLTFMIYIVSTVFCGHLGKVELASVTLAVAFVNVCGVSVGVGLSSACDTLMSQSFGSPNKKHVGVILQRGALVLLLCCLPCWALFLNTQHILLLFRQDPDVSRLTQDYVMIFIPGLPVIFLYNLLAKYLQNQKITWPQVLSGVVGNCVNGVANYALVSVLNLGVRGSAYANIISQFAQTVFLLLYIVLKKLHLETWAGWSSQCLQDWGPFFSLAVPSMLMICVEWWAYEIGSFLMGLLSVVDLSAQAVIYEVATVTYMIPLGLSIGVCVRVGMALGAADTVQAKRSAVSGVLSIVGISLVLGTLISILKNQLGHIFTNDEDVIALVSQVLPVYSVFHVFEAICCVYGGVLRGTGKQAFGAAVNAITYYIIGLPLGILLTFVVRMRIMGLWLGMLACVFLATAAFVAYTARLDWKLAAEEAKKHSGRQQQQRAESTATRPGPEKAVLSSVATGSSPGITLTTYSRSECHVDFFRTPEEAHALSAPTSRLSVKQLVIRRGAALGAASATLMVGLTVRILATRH

JAK1 = settings: cited from earlier work
[6] = filgotinib: unchanged; cited from earlier work
P‐glycoprotein = settings: in vitro; cited from earlier work
P‐gp = settings: in vitro; at clinically relevant concentrations; cited from earlier work
[7] = system: breast cancer resistance protein; settings: in vitro; at clinically relevant concentrations; cited from earlier work
[8] = system: organic cation transporter 1; settings: in vitro; at clinically relevant concentrations; cited from earlier work
bile salt export pump = settings: in vitro; at clinically relevant concentrations; cited from earlier work
[9] = system: organic anion transporter 1; settings: in vitro; at clinically relevant concentrations; cited from earlier work
[10] = system: organic anion transporter 3; settings: in vitro; at clinically relevant concentrations; cited from earlier work
[11] = system: organic anion transporter 4; settings: in vitro; at clinically relevant concentrations; cited from earlier work
[12] = cited from earlier work
[13] = filgotinib + itraconazole vs filgotinib alone
[14] = single filgotinib 100 mg alone, fasting, median (Q1, Q3), N = 13
[15] = single filgotinib 100 mg alone, fasting, plasma, mean (%CV), N = 13
[16] = filgotinib 200 mg after multiple doses of rifampin 600 mg vs alone
[17] = filgotinib + rifampin vs filgotinib alone
[18] = single filgotinib 200 mg alone, fasting, plasma, mean (%CV), N = 14
[19] = single filgotinib 200 mg alone, median (Q1, Q3), N = 14
[20] = patients with rheumatoid arthritis

## CN(C)C(=N)N=C(N)N [Metformin, metformin]
Safety assessments; study 3, by treatment period
  subjects with AEs: 25%
Safety assessments; study 3, one subject, by treatment phase
  AE considered related to study drug (kind of AE): nausea + vomiting
[1]
  maximal increase of metformin exposure via OCT2, MATE1, and MATE2K inhibition: ~ 2.6 fold
[2]
  AUC(0-inf): 8720 ng·h/mL
  AUC(0-t): 8640 ng·h/mL

## CO[C@H]1/C=C/O[C@@]2(C)Oc3c(C)c(O)c4c(O)c(c(/C=N/N5CCN(C)CC5)c(O)c4c3C2=O)NC(=O)/C(C)=C\C=C\[C@H](C)[C@H](O)[C@@H](C)[C@@H](O)[C@@H](C)[C@H](OC(C)=O)[C@@H]1C [rifampin, reference compound]
Safety assessments; study 2
  subjects with AEs considered to be related to study drug (nausea): 7.1%
  subjects with grade 3 laboratory abnormality (occult blood in urine): 14%
Safety assessments; study 2, by treatment period
  subjects with AEs: 14%
Safety assessments; study 2, by treatment period, majority grade 1 or 2
  subjects with at least one graded laboratory abnormality: 93%
CES1
  induction of CES1: moderate induction
CES2
  induction of CES2: moderate induction

## Nc1nc2cccc(-c3ccc(CN4CCS(=O)(=O)CC4)cc3)n2n1 [GS‐829845]
[3]; [13]
  AUCinf %GLSM ratio (90% CI): 107 (104,110) %
  AUClast %GLSM ratio (90% CI): 106 (103,109) %
[3]; filgotinib: Tmax, t1/2, GS‐829845: C max, AUCinf, T max, t 1/2
  effect of itraconazole on pharmacokinetic parameters (in words): no effect; also recorded: similar; also recorded: did not affect
[3]; [14]
  T max: 4.00 (4.00, 4.00) h
  t1/2: 17.0 (14.0,19.5) h
[3]; [15]
  AUCinf: 31,200 (18.4) ng*h/ml
  AUClast: 30,800 (18.0) ng*h/ml
  C max: 1160 (24.8) ng/ml
[4]; [16]
  reduction in AUCinf by rifampin: 38%
  reduction in C max by rifampin: 19%
[4]; [17]
  AUCinf %GLSM ratio (90% CI): 61.9 (57.9, 66.1) %
  AUClast %GLSM ratio (90% CI): 62.3 (58.4, 66.4) %
  C max %GLSM ratio (90% CI): 81.0 (76.8, 85.4) %
[4]; filgotinib: T max and t 1/2, GS‐829845: Tmax
  effect of rifampin on T max and t 1/2 (in words): similar
[4]; [18]
  AUCinf: 77,400 (25.3) ng*h/ml
  AUClast: 76,700 (24.8) ng*h/ml
  C max: 2900 (15.1) ng/ml
[4]; [19]
  Tmax: 4.00 (3.00, 4.00) h
  t1/2: 15.9 (14.8, 18.9) h
[5]; in vitro data
  inhibition of OCT2 (in words): may inhibit
[5]; [20]
  ratio of maximum unbound plasma concentration over in vitro IC50 against OCT2: 0.5
MATE2K; in vitro data
  inhibition of MATE2K (in words): may inhibit
MATE2K; [20]
  ratio of maximum unbound plasma concentration over in vitro IC50 against MATE2K: 0.69
JAK1
  JAK1 potency relative to filgotinib: ~ 1/10
[6]
  orally administered dose recovered in feces as the named species: ~ 9%
  orally administered dose recovered in urine as the named species: ~ 54%
P‐glycoprotein
  substrate of P‐glycoprotein: substrates
P‐gp
  inhibition of P‐gp: not inhibitors
[7]
  inhibition of breast cancer resistance protein: not inhibitors
[8]
  inhibition of organic cation transporter 1: not inhibitors
Bile salt export pump
  inhibition of bile salt export pump: not inhibitors
[9]
  inhibition of organic anion transporter 1: not inhibitors
[10]
  inhibition of organic anion transporter 3: not inhibitors
[11]
  inhibition of organic anion transporter 4: not inhibitors
[12]
  accumulation following multiple doses: approximately twofold accumulation
  time to steady‐state concentrations: ~4 days
